According to patent US8961944B2, “Use of delta-tocopheryl-carbohydrate as a depigmenting agent” (Pierre Fabre Dermo-Cosmetique, priority 2009, dated 2015):
Read-outs that look alike come from different tables or passages of the source.

How the values were obtained:
[1] = tested on: B16-F10 cells; experiment: Inhibition of α-MSH-stimulated melanogenesis (intracellular melanin) in B16-F10 cells; assay type: cell-based; conditions: for percent inhibition of intracellular melanin / inhibition at 50 µM: 50 μM; for percent inhibition of intracellular melanin / inhibition at 10 µM / inhibition at 50 µM: α-MSH (0.1 μM) stimulation; for inhibition at 10 µM / inhibition at 50 µM: Mus musculus, read-out: percent inhibition of intracellular melanin
Method: B16-F10 cells are inoculated in 96-well plates in DMEM (Dulbecco's Modified Eagle's Medium) supplemented with Foetal Calf Serum (FCS) and incubated for 24 hours at 37° C., 5% CO2. Melanogenesis is stimulated by α-MSH (0.1 μM) for 3 or 5 days. Each concentration of active substance is tested in triplicate. Total melanin and intracellular melanin dissolved in lysis buffer are then assayed by reading absorbance at 405 nm. Total proteins are assayed in the lysate according to protocol “SRD/TO/154/012” and the results are expressed in mg melanin/mg proteins. The percentage of activity is calculated as follows: % inhibition=[([…])/NMC]×100 NMC being the normalised mean of the control NMT being the normalised mean of the treated

[2] = target: T1, glucocerebrosidase (Homo sapiens, UniProt P04062); conditions: compared with reference derivative 4-methylumbelliferyl glucopyranoside; cited from earlier work
T1 sequence (P04062 40-536): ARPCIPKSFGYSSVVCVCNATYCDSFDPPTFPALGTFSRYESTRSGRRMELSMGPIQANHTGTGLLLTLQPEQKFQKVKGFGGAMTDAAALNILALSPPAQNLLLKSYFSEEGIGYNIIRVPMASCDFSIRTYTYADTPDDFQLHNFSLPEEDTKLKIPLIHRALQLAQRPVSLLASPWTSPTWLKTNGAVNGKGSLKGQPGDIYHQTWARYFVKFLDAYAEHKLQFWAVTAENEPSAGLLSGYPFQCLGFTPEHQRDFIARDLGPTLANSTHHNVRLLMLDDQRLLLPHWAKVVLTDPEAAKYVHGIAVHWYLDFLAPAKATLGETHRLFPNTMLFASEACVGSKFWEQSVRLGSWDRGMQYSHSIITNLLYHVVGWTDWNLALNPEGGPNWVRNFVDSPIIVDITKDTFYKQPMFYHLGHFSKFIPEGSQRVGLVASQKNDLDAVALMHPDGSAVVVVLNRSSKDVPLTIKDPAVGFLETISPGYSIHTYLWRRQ

[3] = compared with delta-tocopherol; cited from earlier work

Row | SMILES | percent inhibition of intracellular melanin ([1]; 3 days) | percent inhibition of intracellular melanin ([1]; 5 days) | inhibition at 10 µM ([1]; B16-F10, 72 h, 3 days) | inhibition at 50 µM ([1]; B16-F10, 72 h, 3 days) | inhibition at 10 µM ([1]; B16-F10, 120 h, 5 days) | inhibition at 50 µM ([1]; B16-F10, 120 h, 5 days) | depigmenting activity ([1]; compared with delta-tocopherol (see example 1)) | release of delta-tocopherol by enzymatic hydrolysis [2] | antioxidant capacity [3]
1 | Cc1cc(O)cc2c1O[C@](C)(CCC[C@H](C)CCC[C@H](C)CCCC(C)C)CC2 [Delta-tocopherol, delta-tocopherol, reference compound] | 41% | 48% |  |  |  |  |  |  | 
2 | Cc1cc(O[C@@H]2O[C@H](CO)[C@@H](O)[C@H](O)[C@H]2O)cc2c1O[C@](C)(CCC[C@H](C)CCC[C@H](C)CCCC(C)C)CC2 [Delta-tocopheryl-glucopyranoside, delta-tocopheryl-glucopyranoside] |  |  | 22% | 68% | 38% | 90% | quite higher than that of delta-tocopherol | slowly releases delta-tocopherol, with lower kinetics than a reference derivative | weak antioxidant capacity compared to that of delta-tocopherol
